Assay results taken from PubChem BioAssay AID280 (DTP/NCI, 2004).
“And” between values parts separate entries of the source, which are not always exact repeats. Equal values may be shown once. Inconclusive results and toxic doses are left out. Rule for the calls: active = survival T/C of 150% or more; inactive = T/C below 125% in these data.

Tested on: nude mice, LOX melanoma ip, survival T/C
Experiment: NCI In Vivo Anticancer Drug Screen. Data for tumor model Human Amelanotic Melanoma (LOX) (intraperitoneal) in NU/NU BALB/C (nude) mice
Settings: endpoint: median survival time, schedule: Q04DX003 (ip), higher = longer survival
Method: The antitumor activity of compounds was measured in mice bearing transplantable tumors. Survival or tumor size were measured and the results are expressed as the measurement made in the treated group (T) divided by the measurement made in the vehicle treated control group (C). The tumor model used in this assay is Human Amelanotic Melanoma (LOX) (intraperitoneal) in NU/NU BALB/C (nude) mice

[1] = dose: 12.5 mg/kg/injection, vehicle: saline with Tween-80
[2] = dose: 75.0 mg/kg/injection, vehicle: saline with Tween-80

Measured: T/C

CCOC(=O)C(N)C[S][Sn]([CH3])([CH3])[Cl] (stereo not given)
inactive: [1] 99 % of control | dose: 25.0 mg/kg/injection, vehicle: saline with Tween-80 101 % of control | dose: 50.0 mg/kg/injection, vehicle: saline with Tween-80 104 % of control

CCCSc1nc(COC(=O)NC)c(COC(=O)NC)n1C
inactive: dose: 30.0 mg/kg/injection, vehicle: saline 113 % of control | dose: 60.0 mg/kg/injection, vehicle: saline 110 % of control | dose: 120.0 mg/kg/injection, vehicle: saline 90 % of control | dose: 240.0 mg/kg/injection, vehicle: saline 98 % of control

C/C=C/C=C/c1cc2cc3c(c(O)c2c(=O)[nH]1)C1(CC3)C(O)=c2c(=O)c3c(=O)cc(OC)c(=O)c=3c(=O)c2=C1O (stereo not given)
active: dose: 1.0 mg/kg/injection, vehicle: water 155 % of control | dose: 1.8 mg/kg/injection, vehicle: water 155 % of control | dose: 3.0 mg/kg/injection, vehicle: water 169 % of control and 177 % of control | dose: 5.0 mg/kg/injection, vehicle: water 177 % of control | dose: 8.3 mg/kg/injection, vehicle: water 189 % of control

S=C(N/N=C1/CCCC/C1=N/NC(=S)N1CCOCC1)N1CCOCC1
inactive: dose: 3.13 mg/kg/injection, vehicle: saline with Tween-80 116 % of control | dose: 6.25 mg/kg/injection, vehicle: saline with Tween-80 117 % of control | [1] 110 % of control

Cc1cc2c(=O)cc(-c3ccccc3)oc2c(C(=O)O)c1C
inactive: dose: 62.5 mg/kg/injection, vehicle: saline with Tween-80 95 % of control | dose: 125.0 mg/kg/injection, vehicle: saline with Tween-80 94 % of control | dose: 250.0 mg/kg/injection, vehicle: saline with Tween-80 90 % of control

COc1ccc(/C=C\c2cc(OC)c(OC)c(OC)c2)c(O)c1O
inactive: dose: 6.25 mg/kg/injection, vehicle: saline + Tween-80 + alcohol 97 % of control | dose: 12.5 mg/kg/injection, vehicle: saline + Tween-80 + alcohol 110 % of control | dose: 25.0 mg/kg/injection, vehicle: saline + Tween-80 + alcohol 124 % of control

C=COC(=O)C(Cc1ccccc1)NC(=O)OCc1ccccc1 (stereo not given)
inactive: dose: 7.5 mg/kg/injection, vehicle: saline with Tween-80 97 % of control | dose: 15.0 mg/kg/injection, vehicle: saline with Tween-80 101 % of control | dose: 30.0 mg/kg/injection, vehicle: saline with Tween-80 105 % of control | dose: 60.0 mg/kg/injection, vehicle: saline with Tween-80 95 % of control | [2] 89 % of control | dose: 120.0 mg/kg/injection, vehicle: saline with Tween-80 104 % of control

O=C(/C=C/c1cccnc1)/C=C/c1cccnc1
inactive: dose: 6.25 mg/kg/injection, vehicle: Klucel (hydroxypropylcellulose) (HPC) 104 % of control | dose: 12.5 mg/kg/injection, vehicle: Klucel (hydroxypropylcellulose) (HPC) 105 % of control | dose: 25.0 mg/kg/injection, vehicle: Klucel (hydroxypropylcellulose) (HPC) 111 % of control | dose: 50.0 mg/kg/injection, vehicle: Klucel (hydroxypropylcellulose) (HPC) 116 % of control | dose: 100.0 mg/kg/injection, vehicle: Klucel (hydroxypropylcellulose) (HPC) 88 % of control

CC1C(c2ccccc2)OC(N2CCOCC2)C(C)(C)CN1C (stereo not given)
inactive: [2] 105 % of control | dose: 150.0 mg/kg/injection, vehicle: saline with Tween-80 93 % of control | dose: 300.0 mg/kg/injection, vehicle: saline with Tween-80 90 % of control
